Laboratory results reported in publication PMC9886550, “Molecular mechanism of topoisomerase poisoning by the peptide antibiotic albicidin” (Nature Catalysis, 2023).
In brackets after ≈: the same amount, converted by molar mass. Read-outs that look alike come from different tables or passages of the source. Marks after values point to notes of the source that are not given here.

What was measured:
B. subtilis DSM10 = experiment: MIC determination (microdilution, M07-A9); type: cell-based; settings: Bacillus subtilis
Procedure: (§1) MIC values were determined according to the ninth edition of the Approved Standard M07-A9. The test was carried out for six different bacterial strains (E. coli DSM 1116 (Gram-negative), E. coli BW25113 (Gram-negative), B. subtilis DSM 10 (Gram-positive), M. luteus DSM 1790 (Gram-positive), M. phlei DSM 750 (Gram-positive), S. typhimurium TA 100 (Gram-negative). First, 20 µl of glycerol stock of each strain was inoculated in 20 ml LB (Lennox) followed by incubation overnight at 37 °C, 200 r.p.m. The test inoculum was adjusted by the 0.5 McFarland Standard. Within 15 min of preparation, the adjusted inoculum suspension was diluted in MHBII so that each well contained approximately 5 × 10^5 c.f.u. ml^−1 in a final volume of 100 µl. Then, 95 µl of the inoculum was applied per well and 5 µl of the (diluted) albicidins was added. For dilutions, the dry powders were dissolved in dimethylsulfoxide (DMSO) with a concentration of 2.56 mg ml^−1, and the obtained stock solutions were further diluted in DMSO. Next, 5 µl of each antibiotic dilution was applied to the microdilution tray to reach final concentrations of 8 to 0.016 µg ml^−1. One row of each well plate served as a growth control without antibiotic and another row of the microdilution tray served as a sterility control (only MHBII media). The antimicrobial effect of the solvent was tested by adding 5 µl DMSO to several wells. Purity check and cell titre control were performed according to International Standard M07-A9 on Mueller–Hinton II Agar. Both microdilution trays and agar plates were incubated at 37 °C for 20 h.

E. coli BW25113 = experiment: MIC determination (microdilution, M07-A9); type: cell-based; settings: E. coli BW25113
Procedure: as §1

E. coli DSM116 = experiment: MIC determination (microdilution, M07-A9); type: cell-based
Procedure: as §1

M. luteus DSM1790 = experiment: MIC determination (microdilution, M07-A9); type: cell-based
Procedure: as §1

M. phlei DSM750 = experiment: MIC determination (microdilution, M07-A9); type: cell-based; settings: Mycolicibacterium phlei
Procedure: as §1

S. typhimurium TA100 = experiment: MIC determination (microdilution, M07-A9); type: cell-based
Procedure: as §1

[1] = system: selected Gram-negative and Gram-positive microorganisms; experiment: MIC activity groups over all tested strains; type: cell-based; parameters: key: a: most potent; b: intermediate; least active; settings: MIC panel
Procedure: as §1

WT E. coli gyrase = target: T1, WT E. coli gyrase (Escherichia coli, UniProt P0AES4+P0AES6); experiment: biochemical; type: biochemical; settings: WT gyrase 20 nM; in words
T1 construct: alternative cryo-EM approach involving full-length E. coli gyrase; 10-His (cleaved yes); Twin-Strep (cleaved yes); made in house
T1 sequence (P0AES4 whole entry, one chain of several): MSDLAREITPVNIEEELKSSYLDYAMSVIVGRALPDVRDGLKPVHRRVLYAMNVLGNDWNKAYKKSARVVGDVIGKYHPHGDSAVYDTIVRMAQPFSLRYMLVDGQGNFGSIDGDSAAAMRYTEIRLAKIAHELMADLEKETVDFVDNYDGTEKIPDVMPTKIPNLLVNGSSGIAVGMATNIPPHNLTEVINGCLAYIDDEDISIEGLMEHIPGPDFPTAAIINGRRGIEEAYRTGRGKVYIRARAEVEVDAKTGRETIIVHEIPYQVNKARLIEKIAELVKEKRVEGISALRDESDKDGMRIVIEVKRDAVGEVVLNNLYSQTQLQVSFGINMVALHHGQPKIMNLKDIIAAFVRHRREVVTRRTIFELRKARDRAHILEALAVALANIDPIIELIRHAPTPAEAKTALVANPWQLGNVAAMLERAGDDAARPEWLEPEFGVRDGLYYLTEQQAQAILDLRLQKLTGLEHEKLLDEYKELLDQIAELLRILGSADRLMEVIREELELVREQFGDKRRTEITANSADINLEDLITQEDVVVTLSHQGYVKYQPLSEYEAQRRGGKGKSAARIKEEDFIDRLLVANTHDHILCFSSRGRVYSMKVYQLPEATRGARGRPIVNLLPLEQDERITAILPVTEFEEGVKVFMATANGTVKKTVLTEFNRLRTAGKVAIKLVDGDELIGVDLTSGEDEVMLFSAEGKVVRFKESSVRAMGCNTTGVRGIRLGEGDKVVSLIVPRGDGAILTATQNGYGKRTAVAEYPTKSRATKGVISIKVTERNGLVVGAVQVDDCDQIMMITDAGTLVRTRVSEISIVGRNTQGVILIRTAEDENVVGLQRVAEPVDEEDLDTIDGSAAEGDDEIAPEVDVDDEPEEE
Procedure: For DNA gyrase supercoiling assays to characterize gyrase mutants, 15 µl reactions were set up containing 250 ng of relaxed DNA, E. coli gyrase supercoiling buffer (35 mM Tris–Cl pH 7.5, 24 mM KCl, 4 mM MgCl2, 2 mM DTT, 1.8 mM spermidine, 1 mM ATP, 6.0% (w/v) glycerol, and 0.1 mg ml^−1 BSA), gyrase subunits and inhibitors. Concentrations of enzyme and inhibitor are stated in the figure legends. Inhibitors were diluted in the following way to reduce the chance of precipitation: stock compound in 100% DMSO was diluted to 5 mM in 100% DMSO. This compound solution was diluted to 1 mM by stepwise addition of 1 µl of 50% DMSO with thorough mixing via pipetting after each addition. All subsequent dilutions up to 100 µM were performed in the same way using H2O. After this point, compounds were stable and could be diluted in the normal way. Reactions were incubated at 37 °C for 30 min before stopping with 15 µl chloroform:isoamyl alcohol (24:1 v/v) and 15 µl of STEB (40% (w/v) sucrose, 100 mM Tris–Cl pH 8, 10 mM EDTA, 0.5 mg ml^−1 bromophenol blue).
Cleavage assays were set up in the same way as supercoiling assays with some modifications. The concentration of enzyme was increased 4-fold relative to the supercoiling assay and reactions were incubated for 1 h before addition of 0.2% SDS and proteinase K (0.2 mg ml^−1) and further incubation at 37 °C for 30 min to trap cleavage complexes. Reactions were stopped in the same way as supercoiling assays.
Results were visualized by agarose gel electrophoresis: 1% agarose Tris-acetate-EDTA (TAE) gels were run without ethidium bromide (supercoiling) or with 10 µg ml^−1 ethidium bromide (cleavage) at 8 V cm^−1.
DNA cleavage gels were analysed using densitometry (ImageJ). Experiments were carried out in triplicate and expressed as mean ± s.d. Curves were fitted using OriginPro 2021 (Origin Lab) according to a modified Hill equation:1 y=cI+(cF−cI)[…]/(k^n+x^n) where y is the percentage of cleaved DNA, cI is the initial cleavage, cF is the final cleavage, k is the CC50 (the concentration of inhibitor that results in cleavage of 50% of DNA), n is a slope factor and x is the inhibitor concentration.

E. coli gyrase = target: T2, E. coli gyrase (Escherichia coli, UniProt P0AES4+P0AES6); experiment: Gyrase cleavage of linear DNA fragments (Mu217 and others); type: biochemical; settings: in words
T2 construct: alternative cryo-EM approach involving full-length E. coli gyrase; 10-His (cleaved yes); Twin-Strep (cleaved yes); made in house
T2 sequence (P0AES4 whole entry, the tested form may be a part, one chain of several): as the sequence (P0AES4 whole entry, one chain of several) above
Procedure: Mu217 DNA (25 nM) was incubated with 0.4 µM gyrase and indicated concentrations (1 or 10 µM) of diazirine-labelled albicidin (photo-Albi, φAlbi) in a volume of 20 µl (~70 ng DNA) at 37 °C for 30 min in gyrase cleavage buffer (see section 'Topoisomerase assays'). For CFX competition experiments, 30 µM CFX was added first, followed by the albicidin. Reactions were either irradiated with ultraviolet 365 nm (benchtop transilluminator) with cooling (ice) for 30 min or left on ice for 30 min (‘dark’). Then, 0.2% SDS and 0.2 mg ml^−1 proteinase K were added to both samples, which were incubated for another 30 min. Reactions were mixed with loading dye (STEB) and chloroform:isoamyl alcohol (24:1 v/v) before vortexing and centrifugation. The aqueous phase was loaded on 4–20% TBE (Tris–borate–EDTA) polyacrylamide gel (Thermo) and ran for 1 h at 150 V. DNA was visualized with SYBR Gold (Thermo) staining.
Extended Data Fig. 1 Length dependency of albicidin-mediated DNA cleavage. Position of cleaved DNA indicated by arrows and red dots. ATP and ADPNP were added as indicated, (----) stands for no nucleotide added. 20 nM gyrase, 1 µM albicidin and 25 nM DNA was used in each reaction.
Extended Data Fig. 5 Photocrosslinking of diazirine-labelled albicidin (photo-Albi) to the DNA. a. Structures of N-terminal photo-Albi and control compound. b. DNA cleavage assay with Mu217 fragment and indicated concentrations of compounds. The labelled DNA band appearing upon irradiation of a photo-compound when bound to the complex is marked by a yellow star. c. Ciprofloxacin competition experiment. Pre-incubation with excess CFX prevents albicidin binding and crosslinking. Details of the experiment are available in Methods section.

[2] = first value in cell (biological replicate)
[3] = second value in cell (biological replicate)
[4] = Escherichia coli, first value in cell (biological replicate), read-out: MIC
[5] = E. coli DSM116, second value in cell (biological replicate)
[6] = Escherichia coli, E. coli DSM116, first value in cell (biological replicate), read-out: MIC
[7] = Micrococcus luteus, first value in cell (biological replicate), read-out: MIC
[8] = Salmonella enterica, first value in cell (biological replicate), read-out: MIC

SMILES	MIC (B. subtilis DSM10; [2]) [µg/mL]	MIC (B. subtilis DSM10; [3]) [µg/mL]	MIC (E. coli BW25113; [4]) [µg/mL]	MIC (E. coli DSM116; [5])	MIC (E. coli DSM116; [6]) [µg/mL]	MIC (M. luteus DSM1790; [7]) [µg/mL]	MIC (M. luteus DSM1790; [3])	MIC (M. phlei DSM750; [2]) [µg/mL]	MIC (M. phlei DSM750; [3]) [µg/mL]	MIC (S. typhimurium TA100; [8]) [µg/mL]	activity group (superscript letter) [1]	activity in a DNA cleavage assay relative to albicidin (WT E. coli gyrase)	MIC (E. coli BW25113; [3])	MIC (E. coli DSM116; Escherichia coli, DSM116, E. coli DSM116, first value in cell (biological replicate), read-out: MIC) [µg/mL]	MIC (E. coli DSM116; Escherichia coli, DSM116, E. coli DSM116, second value in cell (biological replicate), read-out: MIC) [µg/mL]	MIC (S. typhimurium TA100; [3])	activity against gyrase (E. coli gyrase)
COc1ccccc1NC(=O)c1ccc(NC(=O)[C@H](Cc2c[nH]nn2)NC(=O)c2ccc(NC(=O)c3ccc(C#N)cc3)cn2)cn1 [AE-1]	> 8	> 8	> 8	>8.0 >8.0 µg ml^−1	> 8	> 8	>8.0 >8.0 µg ml^−1	> 8	> 8	> 8	AE-1^c	–	–	–	–	–	–
COc1ccccc1NC(=O)c1ccc(NC(=O)[C@H](Cc2c[nH]nn2)NC(=O)c2ccc(NC(=O)c3ccc(C#N)cc3)cc2)cn1 [AE-2]	> 8	> 8	> 8	>8.0 >8.0 µg ml^−1	> 8	> 8	>8.0 >8.0 µg ml^−1	> 8	> 8	> 8	AE-2^c	–	–	–	–	–	–
COc1ccccc1NC(=O)c1ccc(NC(=O)[C@H](Cc2c[nH]nn2)NC(=O)c2ccc(NC(=O)/C(C)=C/c3ccc(O)cc3)cc2)cn1 [AE-3]	> 8	> 8	> 8	>8.0 >8.0 µg ml^−1	> 8	> 8	>8.0 >8.0 µg ml^−1	> 8	> 8	> 8	AE-3^c	–	–	–	–	–	–
CC(C)Oc1ccccc1NC(=O)c1ccc(NC(=O)[C@H](Cc2c[nH]nn2)NC(=O)c2ccc(NC(=O)c3ccc(C#N)cc3)cn2)cn1 [AE-4]	> 8	> 8	> 8	>8.0 >8.0 µg ml^−1	> 8	> 8	>8.0 >8.0 µg ml^−1	> 8	> 8	> 8	AE-4^c	–	–	–	–	–	–
COc1c(NC(=O)c2ccc(NC(=O)[C@H](Cc3c[nH]nn3)NC(=O)c3ccc(NC(=O)c4ccc(C#N)cc4)cc3)cn2)ccc(F)c1F [AE-5]	> 8	> 8	> 8	>8.0 >8.0 µg ml^−1	> 8	> 8	>8.0 >8.0 µg ml^−1	> 8	> 8	> 8	AE-5^c	–	–	–	–	–	–
COc1c(NC(=O)c2ccc(NC(=O)c3ccc(NC(=O)[C@H](Cc4c[nH]nn4)NC(=O)c4ccc(C#Cc5ccc(C#N)cc5)cc4)cn3)c(OC)c2O)ccc(C(=O)O)c1O [Alkyne–Albi]	0.063 (≈ 0.0754 µM)	0.125 (≈ 0.15 µM)	< 0.016	<0.016 <0.016 µg ml^−1	< 0.016	< 0.016	<0.016 <0.016 µg ml^−1	0.25 (≈ 0.299 µM)	0.5 (≈ 0.598 µM)	< 0.016	Alkyne–Albi^a	as active as albicidin	–	–	–	–	–
COc1c(NC(=O)c2ccc(NC(=O)c3ccc(NC(=O)[C@H](Cc4c[nH]nn4)NC(=O)c4ccc(NC(=O)/C(C)=C/c5ccc(O)cc5)cc4)cn3)c(OC)c2O)ccc(C(=O)O)c1O [Azahis–Albi]	0.031 (≈ 0.035 µM)	0.063 (≈ 0.0711 µM)	< 0.016	–	–	0.031 (≈ 0.035 µM)	–	0.125 (≈ 0.141 µM)	0.5 (≈ 0.564 µM)	< 0.016	–	–	<0.016 <0.016 µg ml^−1	< 0.016	< 0.016	<0.016 <0.016 µg ml^−1	–
C#CC[C@H](NC(=O)c1ccc(NC(=O)c2ccc(C3(C(F)(F)F)N=N3)cc2)cc1)C(=O)Nc1ccc(C(=O)Nc2ccc(C(=O)Nc3ccc(C(=O)O)c(O)c3OC)c(O)c2OC)nc1 [photo-Albi]	–	–	–	–	–	–	–	–	–	–	–	–	–	–	–	–	active against gyrase
